From PMC3528043, “Synthesis of New N,N’-Bis(5-arylidene-4-oxo-4,5-dihydrothiazolin-2-yl)piperazine Derivatives Under Microwave Irradiation and Preliminary Biological Evaluation” (Scientia Pharmaceutica, 2012)

Columns and labels:
HCT 116 = experiment: Cell survival assay, HCT 116 (colon) tumor cell line; type: cell-based; details: Homo sapiens; HCT 116 colon tumor cells, 48 h exposure, survival by nuclei count; read-out: Cell lines IC50 HCT 116
CLK2 = experiment: In vitro kinase inhibition assay CLK2; type: biochemical, human; details: for IC50: 15 μM ATP, 30°C, buffer A, RS peptide
Huh7 = experiment: Cell survival assay, Huh7 (liver) tumor cell line; type: cell-based; details: Homo sapiens, Huh-7; Huh7 liver tumor cells, 48 h exposure, survival by nuclei count; read-out: Cell lines IC50 Huh7
Experimental: (§1) Skin diploid fibroblastic cells were provided by BIOPREDIC International Company (Rennes, France). Caco-2 cells and Huh7 cells were obtained from the ECAC collection. Cells were grown according to ECAC recommendations. The RLEC-F1 clone was derived from an established rat biliary epithelial cell line as previously described. The toxicity test of the compounds on these cells was as follows: 4 × 10^3 cells were seeded in 96 multiwell plates and left for 24 h for attachment, spreading, and growing. Then they were exposed for 48 h to increasing concentrations of the compounds, ranging from […] in a final volume of 80 μL of culture medium. They were then fixed with 4% paraform-aldehyde solution and the nuclei were stained with […] and counted using automated imaging analysis (Simple PCI software).

DYRK2 = molecular target: T1, DYRK2 (Homo sapiens, UniProt Q92630); experiment: In vitro kinase inhibition assay DYRK2; type: biochemical; details: for IC50: 15 μM ATP, 30°C, buffer A, Woodtide substrate
T1 sequence (Q92630 1-601): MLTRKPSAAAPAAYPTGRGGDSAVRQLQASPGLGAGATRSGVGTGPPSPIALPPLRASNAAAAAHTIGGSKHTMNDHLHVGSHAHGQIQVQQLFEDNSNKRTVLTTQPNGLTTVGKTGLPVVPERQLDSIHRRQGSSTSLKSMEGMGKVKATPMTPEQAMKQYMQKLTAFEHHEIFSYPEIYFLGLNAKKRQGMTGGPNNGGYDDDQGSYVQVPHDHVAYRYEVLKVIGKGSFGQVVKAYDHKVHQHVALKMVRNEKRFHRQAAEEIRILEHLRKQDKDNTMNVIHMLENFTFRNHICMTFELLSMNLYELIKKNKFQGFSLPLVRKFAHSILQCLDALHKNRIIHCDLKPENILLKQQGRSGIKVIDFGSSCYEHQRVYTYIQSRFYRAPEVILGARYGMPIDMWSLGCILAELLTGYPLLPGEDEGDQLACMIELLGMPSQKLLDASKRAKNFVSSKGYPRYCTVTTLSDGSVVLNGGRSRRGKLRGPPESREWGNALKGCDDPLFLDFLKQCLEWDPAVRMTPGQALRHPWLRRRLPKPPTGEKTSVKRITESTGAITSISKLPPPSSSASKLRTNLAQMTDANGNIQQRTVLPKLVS

PC3 = experiment: Cell survival assay, PC3 (prostate) tumor cell line; type: cell-based; details: Homo sapiens, PC-3; PC3 prostate tumor cells, 48 h exposure, survival by nuclei count; read-out: Cell lines IC50 PC3
NCI = experiment: Cell survival assay, NCI (lung) tumor cell line; type: cell-based; details: NCI lung tumor cells, 48 h exposure, survival by nuclei count; read-out: Cell lines IC50 NCI
[1] = test system: Skin diploid fibroblastic cells; experiment: Cell survival assay, normal fibroblasts; type: cell-based; details: Fibroblast, 48 h exposure, survival by nuclei count, read-out: Cell lines IC50 Fibroblats
Experimental: as §1

CLK1 = CLK1 (Homo sapiens, UniProt P49759); experiment: In vitro kinase inhibition assay CLK1; type: biochemical; details: for IC50: 15 μM ATP, 30°C, buffer A, RS peptide
CLK1, sequence (P49759 whole entry): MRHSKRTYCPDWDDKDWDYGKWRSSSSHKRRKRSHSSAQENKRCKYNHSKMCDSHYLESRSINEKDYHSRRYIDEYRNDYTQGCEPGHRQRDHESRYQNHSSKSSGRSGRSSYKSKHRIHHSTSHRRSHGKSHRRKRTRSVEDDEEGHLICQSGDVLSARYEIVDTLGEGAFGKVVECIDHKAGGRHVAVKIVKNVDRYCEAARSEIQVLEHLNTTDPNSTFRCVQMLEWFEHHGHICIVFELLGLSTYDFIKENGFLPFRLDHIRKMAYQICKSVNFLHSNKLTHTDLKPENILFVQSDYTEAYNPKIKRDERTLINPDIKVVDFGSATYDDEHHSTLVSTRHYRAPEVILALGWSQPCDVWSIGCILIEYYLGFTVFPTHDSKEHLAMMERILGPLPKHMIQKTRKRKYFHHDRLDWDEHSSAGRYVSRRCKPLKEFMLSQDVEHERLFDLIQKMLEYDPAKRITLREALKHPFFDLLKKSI

DYRK1A = DYRK1A (Homo sapiens, UniProt Q13627); experiment: In vitro kinase inhibition assay DYRK1A; type: biochemical; details: for IC50: 15 μM ATP, 30°C, buffer A, Woodtide substrate
Caco2 = experiment: Cell survival assay, Caco2 (colon) tumor cell line; type: cell-based; details: Homo sapiens, Caco-2; Caco2 colon tumor cells, 48 h exposure, survival by nuclei count; read-out: Cell lines IC50 Caco2
Experimental: as §1

MDA-MB 231 = experiment: Cell survival assay, MDA-MB 231 (breast) tumor cell line; type: cell-based; details: Homo sapiens; MDA-MB 231 breast tumor cells, 48 h exposure, survival by nuclei count; read-out: Cell lines IC50 MDA-MB 231
CDK5/p25 = molecular target: T2, CDK5/p25 (Homo sapiens, UniProt Q00535); experiment: In vitro kinase inhibition assay CDK5/p25; type: biochemical; details: for IC50: 15 μM ATP, 30°C, buffer C, histone H1
T2 construct: made in house
T2 sequence (Q00535 whole entry): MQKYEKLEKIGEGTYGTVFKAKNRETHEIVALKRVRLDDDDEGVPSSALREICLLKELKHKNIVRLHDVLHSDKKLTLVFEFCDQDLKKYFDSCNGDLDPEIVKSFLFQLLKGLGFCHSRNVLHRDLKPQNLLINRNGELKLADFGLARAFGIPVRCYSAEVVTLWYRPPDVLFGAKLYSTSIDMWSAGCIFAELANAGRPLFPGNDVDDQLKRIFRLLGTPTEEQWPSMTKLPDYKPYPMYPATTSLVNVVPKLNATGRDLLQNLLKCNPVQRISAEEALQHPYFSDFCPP
T2 sequence (Q15078 99-307 partner limits assumed): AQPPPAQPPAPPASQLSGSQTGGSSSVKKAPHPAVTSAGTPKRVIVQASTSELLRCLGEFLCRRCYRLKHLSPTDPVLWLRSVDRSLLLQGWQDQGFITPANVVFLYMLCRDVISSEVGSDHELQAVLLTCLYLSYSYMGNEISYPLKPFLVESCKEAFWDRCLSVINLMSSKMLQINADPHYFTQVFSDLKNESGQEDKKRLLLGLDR

GSK-3α/β = experiment: In vitro kinase inhibition assay GSK3α/β; type: biochemical, porcine; details: for IC50: 15 μM ATP, 30°C, buffer A, GS-1 substrate

Row | IC50 (DYRK1A) [µM] | IC50 (CDK5/p25) [µM] | IC50 (GSK-3α/β) [µM] | melting point [°C] | SMILES | IC50 (HCT 116) [µM] | IC50 (Huh7) [µM] | IC50 (PC3) [µM] | IC50 (NCI) [µM] | IC50 [1] [µM] | IC50 (Caco2) [µM] | IC50 (MDA-MB 231) [µM] | other results
1 | > 10 | > 10 | > 10 | – | COc1ccc(/C=C2\SC(=S)NC2=O)cc1 [Compound 3b, (5Z)-5-(4-Methoxybenzylidene)-2-thioxo-1,3-thiazolidin-4-one] | > 25 | > 25 | > 25 | > 25 | > 25 | > 25 | > 25 | Activity towards CLK2 (in words) (CLK2): inactive; IC50 (CLK2): > 10 µM; Activity towards DYRK2 (in words) (DYRK2): inactive; IC50 (DYRK2): > 10 µM; Activity towards CLK1 (in words) (CLK1): inactive; IC50 (CLK1): > 10 µM; Activity towards DYRK1A (in words) (DYRK1A): inactive; Activity towards CDK5/p25 (in words) (CDK5/p25): inactive; Activity towards GSK3α/β (in words) (GSK-3α/β): inactive
2 | 0.07 | > 10 | 8.5 | – | O=C1NC(=S)S/C1=C\c1ccc2c(c1)OCO2 [Compound 3c, (5Z)-5-(1,3-Benzodioxol-5-ylmethylidene)-2-thioxo-1,3-thiazolidin-4-one] | > 25 | > 25 | > 25 | > 25 | > 25 | > 25 | > 25 | –
3 | – | – | – | 224 to 226 | O=C(O)CCN1C(=O)/C(=C/c2ccccc2)SC1=S [Compound 3d, 3-[(5Z)-5-Benzylidene-4-oxo-2-thioxo-1,3-thiazolidin-3-yl]propanoic acid] | – | – | – | – | – | – | – | –
4 | – | – | – | 226 to 228 | O=C(O)CCN1C(=O)/C(=C/c2ccc3c(c2)OCCO3)SC1=S [Compound 3g, 3-[(5Z)-5-(2,3-Dihydro-1,4-benzodioxin-6-ylmethylidene)-4-oxo-2-thioxo-1,3-thiazolidin-3-yl]propanoic acid] | – | – | – | – | – | – | – | –
5 | – | – | – | > 260 | O=C1N=C(N2CCN(C3=NC(=O)/C(=C/c4ccccc4)S3)CC2)S/C1=C\c1ccccc1 [Compound 5a, (5Z,5’Z)-2,2’-(Piperazine-1,4-diyl)bis(5-benzylidene-1,3-thiazol-4(5H)-one)] | > 25 | > 25 | > 25 | > 25 | > 25 | 25 | > 25 | –
6 | – | – | – | > 260 | COc1ccc(/C=C2\SC(N3CCN(C4=NC(=O)/C(=C/c5ccc(OC)cc5)S4)CC3)=NC2=O)cc1 [Compound 5b, (5Z,5’Z)-2,2’-(Piperazine-1,4-diyl)bis[5-(4-methoxybenzylidene)-1,3-thiazol-4(5H)-one]] | – | – | – | – | – | – | – | –
7 | – | – | – | – | O=C1N=C(N2CCN(C3=NC(=O)/C(=C/c4ccc5c(c4)OCO5)S3)CC2)S/C1=C\c1ccc2c(c1)OCO2 [Compound 5c, (5Z,5’Z)-2,2’-(Piperazine-1,4-diyl)bis[5-(1,3-benzodioxol-5-ylmethylene)-1,3-thiazol-4(5H)-one]] | > 25 | > 25 | 40 | > 25 | 40 | 20 | > 25 | –
8 | 0.041 | > 10 | > 10 | 220 to 222 | COc1ccc(/C=C2\SC(NCCCN3CCN(CCCNC4=NC(=O)/C(=C/c5ccc(OC)cc5)S4)CC3)=NC2=O)cc1 [Compound 5d, (5Z,5’Z)-2,2’-[Piperazine-1,4-diylbis(propane-3,1-diylimino)]bis[5-(4-methoxybenzylidene)-1,3-thiazol-4(5H)-one]] | – | – | – | – | – | – | – | IC50 (CLK2): 7.7 µM; IC50 (DYRK2): 0.6 µM; IC50 (CLK1): 0.5 µM; Activity towards DYRK1A (in words) (DYRK1A): nanomolar inhibition potency
9 | – | – | – | 222 to 224 | O=C1N=C(NCCCN2CCN(CCCNC3=NC(=O)/C(=C/c4ccc5c(c4)OCO5)S3)CC2)S/C1=C\c1ccc2c(c1)OCO2 [Compound 5e, (5Z,5’Z)-2,2’-[Piperazine-1,4-diylbis(propane-3,1-diylimino)]bis[5-(1,3-benzodioxol-5-ylmethylene)-1,3-thiazol-4(5H)-one]] | – | – | – | – | – | – | – | –
